The subject of the experiment is tqq cluster of S. suis. In words: High-throughput elicitor screening. The following applies: for elicitation of threoglucin E: 2D slice from the 3D map, abundance of threoglucin E across all 442 elicitors, Figure 2B; for elicited features in HiTES 3D difference map: ~442-member human endogenous metabolite library, UPLC-Qtof-MS, Figure 2A. Format: cell-based, Streptococcus suis.

The source of these data is PMC10171913 (Journal of the American Chemical Society, 2022).

Regarding `c1cncc([C@@H]2CCCCN2)c1` [anabasine], the “elicitation of threoglucin E” value is reported as “best elicitors” and the “elicited features in HiTES 3D difference map” value was “elicited peaks”. In the same order, the values of `O=C(O)c1cccnc1` [niacin] are “best elicitors” and “elicited peaks”. As to `NC(=O)c1cccnc1` [nicotinamide], the “elicited features in HiTES 3D difference map” value is on record as “elicited peaks”.
